The experiment has as its target regulator of G-protein signaling 4 (RGS4) (Rattus norvegicus, UniProt P49799). Put plainly: LC-ESI-MS of intact protein. Format: biochemical.

The term IC50 denotes the concentration needed to halve the response being measured.

The structures appear in SMILES notation.

Chain of regulator of G-protein signaling 4 (RGS4) (P49799 52-205): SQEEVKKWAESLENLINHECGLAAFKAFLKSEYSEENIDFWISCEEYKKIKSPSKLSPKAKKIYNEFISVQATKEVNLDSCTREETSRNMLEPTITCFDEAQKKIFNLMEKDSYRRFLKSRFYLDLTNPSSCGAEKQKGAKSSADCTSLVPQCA
Chain of regulator of G-protein signaling 4 (RGS4) (P63096 2-354 R178M/A326S partner): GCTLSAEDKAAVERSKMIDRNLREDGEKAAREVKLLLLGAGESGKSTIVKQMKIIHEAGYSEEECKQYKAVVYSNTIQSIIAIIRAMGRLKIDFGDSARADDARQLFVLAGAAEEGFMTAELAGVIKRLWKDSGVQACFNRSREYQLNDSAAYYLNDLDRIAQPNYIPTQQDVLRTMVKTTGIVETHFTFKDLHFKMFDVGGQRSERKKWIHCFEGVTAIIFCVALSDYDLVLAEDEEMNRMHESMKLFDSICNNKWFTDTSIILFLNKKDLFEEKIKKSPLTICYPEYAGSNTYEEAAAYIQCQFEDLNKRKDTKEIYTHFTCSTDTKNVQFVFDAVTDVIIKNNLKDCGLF

The molecule `CCCCCC(O)C=CC=O` (stereo not shown) [4HNE, 4-hydroxy-2-nonenal] gave an IC50 of about 7.5 mM.

The values above are taken from publication PMC4441825 (Chemical research in toxicology, 2013).
